Laboratory results: publication PMC9046208, “Foldamers reveal and validate therapeutic targets associated with toxic α-synuclein self-assembly” (Nature Communications, 2022)

What was measured:
SH-SY5Y cells = test: MTT cytotoxicity assay, SH-SY5Y cells; type: cell-based; conditions: 24 h, αS alone 48 ± 3%
Method: An MTT assay was conducted to assess the effect of SK-129 on the cytotoxicity mediated by αS aggregation in SH-SY5Y cells. The cells were cultured in phenol red-free Dulbeco’s Modified Eagle Medium (DMEM) with 10% Fetal Bovine Serum (FBS) and 1% penicillin-streptomycin (Pen/strep) at 37 °C and 5% CO2(g). The cells were plated in a clear, flat bottom 96-well cell culture plate (Costar, Kennebunk, ME) using a density of 10,000 cells per well with more than 90% cell viability. After incubating for 24 h, the media was aspirated, and 100 µL of fresh OptiMEM (Fisher Scientific, Pittsburgh, PA) was added, […] of various ligands at various stoichiometric ratios. The samples were then incubated for an additional 24 h at 37 °C and 5% CO2(g), followed by the addition of MTT dye (10 µL per well, prepared in 1x PBS buffer, 5 mg/mL). The plates were covered in aluminum foil and incubated again for 3 h. The solution in each well was carefully removed without disturbing the formazan crystals and replaced with 100 µL of DMSO to dissolve the formazan crystals. Subsequently, the plate was shaken in a 96-well plate reader for 5 min before measuring the absorbance at 570 nm. The cell viability was reported on a scale of 100%, using the control wells with regular media as 100% viability and the wells with 10% DMSO (v/v) as 0% viability.

αS = target: T1, αS (Homo sapiens, UniProt P37840); test: FP displacement titration of αS-SK-129F complex with SK-129; type: binding; conditions: displacement of SK-129F from αS-SK-129F complex by SK-129, n = 3
T1 construct: made in house; host or cells: Escherichia coli BL21(DE3), periplasm
Method: All Fluorescence Polarization (FP) experiments were conducted on a Varian Cary Eclipse fluorometer (Agilent, Santa Clara, CA) equipped with a polarizer. The stock solutions of αS, 1 mM or 100 μM in 1x PBS buffer, were serially added into a solution of 10 μM SK-129F (300 μL in 1x PBS buffer) while stirring in a quartz cuvette (Fireflysci, Staten Island, NY). All FP measurements were conducted in triplicates in 20 mM Tris, 100 mM NaCl, pH 7.2 at 20 °C. The excitation and emissions wavelengths were set at 490 nm and 520 nm, respectively. Each titration was equilibrated for five min before measurements were taken for the next addition of αS solution. The addition of αS solution was continuous until no more change in the FP signal was observed. Similar conditions were used for the titration of various αS mutants and Aβ42 peptide against SK-129F. […] The polarization of each point was calculated using Eq. 1:1 FP=I∥−I⊥/I∥+I⊥ Where I∥ is fluorescence intensity parallel to the excitation plane and I⊥ is fluorescence intensity perpendicular to the excitation plane. […]
affinity of SK-129 against αS. The fluorescence polarization titrations between SK129 and the preformed saturated complex of SK129 F-αS were conducted three times and each point in titrations was the average of three data points. […]

With COC(=O)c1cc(OCC(=O)O)c2cccc(NC(=O)c3cc(OC(C)C)c4cccc(NC(=O)c5cc(OCC(=O)O)c6cccc(NC(=O)c7cc(OC(C)C)c8cccc([N+](=O)[O-])c8n7)c6n5)c4n3)c2n1 [SK-129] the “viability of SH-SY5Y cells” value (SH-SY5Y cells; 10 μM αS aggregated with SK-129, 1:0.1 (αS:SK-129)) was 91 ± 4%, the “viability of SH-SY5Y cells” value (SH-SY5Y cells; 10 μM αS aggregated with SK-129, 1:1 (αS:SK-129)) was 97 ± 4% and the Kd (αS) was 0.72 ± 0.06 µM.
